Target: T1, Arabidopsis ADCS (PabAa-PabAb) (Arabidopsis thaliana, UniProt Q8LPN3)
T1 construct: bifunctional PabAa-PabAb ADC synthase in pLOI707HE; extract of E. coli BN1163 (pabA pabB mutant)
T1 sequence (Q8LPN3 46-919): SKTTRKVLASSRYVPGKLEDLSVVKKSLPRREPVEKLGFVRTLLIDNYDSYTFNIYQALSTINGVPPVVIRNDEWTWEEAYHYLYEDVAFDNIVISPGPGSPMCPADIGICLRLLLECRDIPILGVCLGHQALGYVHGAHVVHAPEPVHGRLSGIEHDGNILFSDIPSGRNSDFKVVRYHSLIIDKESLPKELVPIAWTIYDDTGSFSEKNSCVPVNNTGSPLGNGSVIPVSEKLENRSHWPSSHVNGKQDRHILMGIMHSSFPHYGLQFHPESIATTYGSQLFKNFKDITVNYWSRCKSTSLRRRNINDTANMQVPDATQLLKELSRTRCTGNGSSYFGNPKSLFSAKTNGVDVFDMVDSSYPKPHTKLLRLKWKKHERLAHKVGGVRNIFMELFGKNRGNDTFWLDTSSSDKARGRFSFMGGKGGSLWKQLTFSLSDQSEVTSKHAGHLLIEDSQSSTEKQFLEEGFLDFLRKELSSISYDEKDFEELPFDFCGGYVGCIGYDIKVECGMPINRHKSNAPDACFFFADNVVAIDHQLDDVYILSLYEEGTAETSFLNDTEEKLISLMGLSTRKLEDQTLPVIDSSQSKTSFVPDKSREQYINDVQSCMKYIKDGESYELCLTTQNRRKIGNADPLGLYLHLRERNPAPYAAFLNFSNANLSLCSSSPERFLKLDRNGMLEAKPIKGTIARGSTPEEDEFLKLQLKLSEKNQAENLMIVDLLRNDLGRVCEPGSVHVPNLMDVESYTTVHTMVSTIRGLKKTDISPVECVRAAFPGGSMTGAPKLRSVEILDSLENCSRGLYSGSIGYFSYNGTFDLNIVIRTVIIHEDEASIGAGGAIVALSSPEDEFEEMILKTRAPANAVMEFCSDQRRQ
Test: pABA formation in cell extract, coupled to E. coli PabC (ADC lyase), HPLC with fluorescence detection
Type: biochemical
Details: E. coli PabC extract added, 37 °C, 1 h

Compound	pABA formation in cell extract, coupled to E. coli PabC (ADC lyase), HPLC with f (glutamine as amino donor)	pABA formation in cell extract, coupled to E. coli PabC (ADC lyase), HPLC with f (chorismate as co-substrate)
C=C(O[C@@H]1C=C(C(=O)O)C=C[C@H]1O)C(=O)O [chorismate]	Arabidopsis PabAa-PabAb formed pABA only if PabAc was added	
NC(=O)CC[C@H](N)C(=O)O [glutamine]		Arabidopsis PabAa-PabAb formed pABA only if PabAc was added
